Results: patent EP3183253B1, “SALT OF (R)-3-(4-(7H-PYRROLO [2,3-D]PYRIMIDIN-4-YL)-LH-PYRAZOL-L-YL)-3-CYCLOPENTYLPROPANENITRILE WITH BENZENESULFONIC ACID” (ratiopharm GmbH, priority 2014, dated 2016)

Tests used:
Assay type in all cases: physicochemical
[1] = pH-dependency of solubility at 37°C; settings: for solubility: 37°C
From the text: The intestinal tract obeys different pH ranges, which vary from pH 1 to 2 of the empty stomach, pH 3-5 for stomach filled with chyme, to pH 5-7.5 of the colon.

[2] = Storage stability: chemical purity by HPLC/UV; settings: for Chemical purity ([area-%] at λ=230 nm): 40°C/75% rh
Protocol: (§1) Samples were stored in closed and open containers at 25°C/60% rh and at 40°C/75% rh and analyzed after 4, 8 and 12 weeks.
The results of determination of the chemical purity during storage at 40°C/75% rh are summarized. […] Therefore, the analysis of samples, which were stored at 25°C/60% rh, was omitted.

[3] = Dynamic vapor sorption experiment (hygroscopicity); settings: 25°C, reducing humidity to 0% and increasing to 40%
Protocol: Vapour sorption experiments were performed in the instrument SPSx-1µ (Projekt Messtechnik, Ulm, Germany) at temperature of 25°C and the humidity cycles as shown below.
A dynamic vapor sorption experiment was performed with Ruxolitinib besylate. At a constant temperature of 25°C, the substance was exposed to two cycles of varying relative humidity (rh) (40% → 0% →95% (75% r.h. kept constant for 48h) → 0% →40%). Figure 3a presents the relative weight change as a function of time and relative humidity and in […] changes are illustrated as a function of humidity.

[4] = Storage stability: solid-state stability by XRPD analysis
Protocol: The sample was analyzed on a D8 Advance X-ray powder diffractometer (Bruker-AXS, Karlsruhe, Germany). The sample holder was rotated in a plane parallel to its surface at 20 rpm during the measurement. The raw data were analyzed with the program EVA (Bruker-AXS, Germany). The samples were layered onto a silicon specimen holder.
as §1
The solid-state stability was investigated by XRPD analysis for 25°C/60% rh. The results of evaluation are summarized.

## N#CC[C@H](C1CCCC1)n1cc(-c2ncnc3[nH]ccc23)cn1 [Ruxolitinib besylate, Ruxolitinib benzenesulfonate]
[1]; 0.1m hcl, pH 1.2, 37°C, 0.1M HCl pH1.2, 0.5 h
  solubility at 0.5 h: 9600 µg/mL
[1]; 0.1m hcl, pH 1.2, 37°C, 0.1M HCl pH1.2, 1 h
  solubility at 1 h: 9600 µg/mL
[1]; 0.1m hcl, pH 1.2, 37°C, 0.1M HCl pH1.2, 24 h
  solubility at 24 h: 9300 µg/mL
[1]; 20mm naoac, pH 4.5, 37°C, 20mM (NaOAc / NaAc) -pH 4.5, 1 h
  solubility at 1 h: 7100 µg/mL
[1]; 20mM (NaOAc / NaAc) -pH 4.5, 0.5 h
  solubility: 6700 µg/mL
[1]; 20mM (NaOAc / NaAc) -pH 4.5, 24 h
  solubility: 6100 µg/mL
[1]; 50mM KH2PO4 pH 6.8, 24 h
  solubility: 5800 µg/mL
[1]; 50mm kh2po4, pH 6.8, 37°C, 50mM KH2PO4 pH 6.8, 0.5 h
  solubility at 0.5 h: 6800 µg/mL
[1]; 50mm kh2po4, pH 6.8, 37°C, 50mM KH2PO4 pH 6.8, 1 h
  solubility at 1 h: 7000 µg/mL
[2]; 40°C/75% rh, 4, 8 and 12 weeks
  chemical stability during storage (in words): remained chemically stable
[2]; closed container, 4 weeks
  Chemical purity ([area-%] at λ=230 nm): 98.14% area-%
[2]; closed container, 8 weeks
  Chemical purity ([area-%] at λ=230 nm): 98.27% area-%
[2]; closed container, 12 weeks
  Chemical purity ([area-%] at λ=230 nm): 98.06% area-%
[2]; closed container, t = 00 (= initial)
  Chemical purity ([area-%] at λ=230 nm): 98.16 area-%
[2]; open container, 4 weeks
  Chemical purity ([area-%] at λ=230 nm): 98.16% area-%
[2]; open container, 8 weeks
  Chemical purity ([area-%] at λ=230 nm): 98.21% area-%
[2]; open container, 12 weeks
  Chemical purity ([area-%] at λ=230 nm): 98.22% area-%
[2]; open container, t = 00 (= initial)
  Chemical purity ([area-%] at λ=230 nm): 98.16 area-%
[3]
  weight after desorption and re-sorption (in words): resulted in the initial starting weight
[4]; 25°C and 60% relative humidity (RH), up to at least 12 weeks
  stability upon storage (in words): stable
[4]; 25°C/60% rh, throughout the observation period
  solid-state stability by XRPD (in words): remained unchanged
